# Data taken from US10487089B2, “Imaging agents and methods of identifying same” (The Trustees of the University of Pennsylvania, priority 2014, dated 2019).
# “Also recorded” adds a separate entry of the source. Where two headings read alike, the source gives them in different places.
# How the values were obtained:
# [1] = Variable temperature 1H-NMR of E/Z interconversion; type: physicochemical; conditions: DMF-d7, coalescence at 45° C.
# Text: A rapid and efficient synthesis of the desired photoactivatable probe starting with commercially available 2-cyanopyridine (FIG. 52). 2-cyanopyridine was elaborated to thioketone A using methods similar to those previously reported (Rarig et al., 2013, J. Am. Chem. Soc. 135: 9213-9219, which is incorporated by reference in its entirety for all purposes). Homocoupling of A, using copper powder in toluene under refluxing conditions, yielded 1,1′-diazaxanthilidene 10 as an interconverting mixture of E and Z isomers in 84% yield (FIG. 43). Methylation of 10 with dimethyl sulfate afforded the desired monomethylated product 11-E/11-Z in 96% yield. The overall yield of the probe from commercial starting materials after 6 steps was 24% (FIGS. 43 and 52). Single crystals of 10-E and 11-Z were obtained by slow evaporation from chloroform:methanol (1:1) and water, respectively. […] Variable temperature ^1H-NMR (J. Sandström, 1982, Dynamic NMR spectroscopy, Academic Press, London, New York) of 10-E/10-Z in deuterated N,N-dimethylformamide confirmed the dynamic interconversion of the E and Z isomers at room temperature.
# HeLa cells [2] = experiment: Confocal microscopy of stained live HeLa cells (subcellular localization, cell permeability); conditions: for staining specificity / subcellular localization: confocal microscopy
# Text: (§3) Confocal microscopy was done on a Yokogawa spinning disk inverted microscope with a 100× lens. Each batch of stained cells was imaged by exciting with a 488 nm laser while observing at 503-545 nm (the green overlay images), exciting with a 561 nm laser while observing at 583-650 nm (the red overlay images), and by DIC (the grey images) (FIG. 8).
# (§4) A 444 nm excitation was required to image with compounds 2 and 3 (FIG. 18).
# [3] = test system: mitochondria of HeLa cells; experiment: Co-staining with mitotracker red, Pearson colocalization correlation; type: cell-based
# Protocol: (§1) Pearson correlations were done after co-staining with mitotracker or lysotracker to evaluate specificity.
# (§2) Confirmation of the supposed lysosome and mitochondria staining was achieved by doing co-staining experiments with Lysotacker Red™ and Mitortracker Red™, respectively. A Pearson colocalization correlation (PCC) of 0.75 was determined from a costaining experiments in which HeLa cells were incubated with E/Z-2 and Lysotracker. The imperfect correlation is due to higher specificity for a subset of vesicles stained by the Lysotracker.
# HeLa cells [4] = experiment: Toxicity to HeLa cells on a 24 h timescale (live-cell imaging)
# HeLa cells [5] = experiment: One-hundred-time-point timelapse microscopy (photostability / resistance to photobleaching); type: cell-based; conditions: for decrease in intensity after 100 scans: 300 ms/scan, HeLa cells; for photostability compared with commercial dyes: vs Lysotracker Red / Mitotracker Red, 100 laser pulses of 300 ms; for loss of intensity over 100 scans: 100 pulses of 300 ms, maximum intensity of the image tracked
# Protocol: One-hundred-time-point microscopy experiments were performed to evaluate photostability and/or resistance to photobleaching in comparison with the commercial dyes of lysotracker and mitotracker. […] For these experiments, each sample was pulsed 100 times for 300 ms and the maximum intensity of the image was tracked over time. […] Mitotracker was more robust than lysotracker, losing only 34% of its intensity over the 100 scans, while compound 3 lost only ˜13%. The most robust dye discovered thus far is monomethylated-3 (Me-3), which lost only ˜5% of its intensity over 100 scans.
# This was determined via one-hundred-time-point timelapse microscopy experiments in which the […] intensity of the image was monitored over 100 laser pulses of 300 ms (FIG. 42).
# To investigate photostability of 2 and 3, timelapse microscopy experiments were carried out.
# HeLa cells [6] = test system: HeLa cells
# [7] = Photophysical properties (absorption, emission, extinction coefficient, quantum yield); type: physicochemical
# Text: n-Butyllithium in hexanes was purchased from Acros and titrated with diphenylacetic acid, which was recrystallized from toluene. All other reagents were purchased from Sigma Aldrich and used without further purification. Solvents were purchased from either Sigma Aldrich or Fisher Scientific. Anhydrous solvents were purchased from Fisher Scientific and dried by passing through an alumina column of a solvent purification system. Silica gel (230-400 mesh) used for column chromatography was purchased from Silicycle. Thin layer chromatography plates (250 μm thickness) were purchased from Sorbent Technologies. Revered-phase column chromatography was done using a RediSep Rf Gold C18 column on a Teledyne Isco CombiFlash Rf system. High-performance liquid chromatography (HPLC) was performed on a Jasco HPLC system using a Phenomenex column (Luna 5u C18(2) 100A; 250×4.60 mm, 5 micron). UV absorption spectra were obtained on a Jasco V-650 spectrophotometer using a 1 cm path length quartz cuvette. Fluorescence emission spectra were taken on a Horiba Jobin-Yvon FluoroLog using a 1 cm path length fluorescence quartz cuvette. ^1H-NMR and ^13C-NMR were recorded on either a Bruker DMX 500 (500 MHz) or a Bruker AVII 500 (500 MHz). High-resolution mass spectrometry was performed using a Waters LCT Premier XE Mass Spectrometer (model KE 332). […] was performed using a Bruker APEX2-DUO CCD X-ray Diffractometer. Photoreactions were carried out in a Rayonet Photochemical Reactor (model RPR-100). Quantum yield was determined by serial dilution method using coumarine 153 (in ethanol, Φ=0.38) and fluorescein (in NaOH 0.1 M, Φ=0.95) as standards (Yvon, A guide to recording Fluorescence Quantum Yields, http://www.horiba.com/fileadmin/uploads/Scientific/Documents/Fluorescence/quantumyie ldstrad.pdf, accessed Jul. 13, 2014; Brouwer, 2011, Pure Appl. Chem. 83: 2213-2228)
# HeLa cells [8] = test system: HeLa cells; remark: listed apart in the source
# Text: as §3, §4
# lysosomes of HeLa cells = experiment: Co-staining with lysotracker red, Pearson colocalization correlation; type: cell-based
# Protocol: as §1, §2
# [9] = in ethanol; cited from earlier work
# Text for Solubility (DMSO, water): Water solubility would then be evaluated first by simply doing an aqueous extraction.
smiles,measurement,setting,value
"c1ccc2c(c1)Oc1cccnc1/C2=C1\c2ccccc2Oc2cccnc21 (racemic) [10-E/10-Z, 1,1′-diazaxanthilidene]",activation energy ΔG‡ of E/Z interconversion,[1],15.7 kcal/mol
"c1ccc2c(c1)Oc1cnccc1/C2=C1\c2ccccc2Oc2cnccc21 (racemic) [E/Z-1, 3,3′-diazaxanthylidene]",solubility in DMSO,"Solubility (DMSO, water); DMSO",poor solubility
"c1ccc2c(c1)oc1cncc3c4cccc5oc6cnccc6c(c54)c2c13 [Compound 2, chromeno[2,3,4-de]pyrido[3′,4′:2,3]chromeno[4,5-gh]isoquinoline;2,9-diaza-benzo[1,2,3-kl:6,5,4-k′l′]dixanthene]",cell permeability,HeLa cells [2],cell permeable; also recorded: cell-permeable
same,staining specificity / subcellular localization,HeLa cells [2],staining mitochondria; also recorded: selectively stain mitochondria rather than the nucleus; also recorded: mitochondria-specific dyes; also recorded: localize primarily in the mitochondria; also recorded: stains mitochondria and additional structures
same,Pearson correlation with mitotracker red,[3],0.75
same,toxicity to HeLa cells,HeLa cells [4],non-toxic
same,decrease in intensity after 100 scans,HeLa cells [5],only a slight decrease in intensity
same,photostability compared with commercial dyes,HeLa cells [5],superior
"c1cc2oc3cnccc3c3c2c(c1)c1cccc2oc4cnccc4c3c21 [Compound 3, 9,14-diaza-benzo[1,2,3-kl:6,5,4-k′l′]dixanthene]",Pearson correlation with mitotracker red,[3],0.75
same,toxicity to HeLa cells,HeLa cells [6],non-toxic
same,loss of intensity over 100 scans,HeLa cells [5],~13%
same,decrease in intensity after 100 scans,HeLa cells [5],only a slight decrease in intensity
C[n+]1cccc2oc3cccc4c5cccc6oc7cccnc7c(c65)c(c34)c21 [Compound 12],Stokes shift,[7],108 nm
same,Abs λmax,[7]; in water,504 nm
same,Em λmax,[7]; in water,612 nm
same,extinction coefficient ε,[7]; solvent: water,11496 M⁻¹ cm⁻¹
same,quantum yield Φ,[7]; solvent: water,0.100
"C[n+]1ccc2c(c1)oc1cccc3c4c[n+](C)cc5oc6ccccc6c(c54)c2c13 [DiMe-2, 2,9-dimethylchromeno[2,3,4-de]pyrido[3′,4′:2,3]chromeno[4,5-gh]isoquinoline-2,9-diium]",cell permeability,HeLa cells [2],cell permeable
same,staining specificity / subcellular localization,HeLa cells [2],specific for punctuate organelles; also recorded: lysosomal subcellular specificity
same,water solubility,"Solubility (DMSO, water)",water-solubility
same,toxicity to HeLa cells,HeLa cells [4],non-toxic
"C[n+]1ccc2c(c1)oc1cccc3c4cccc5oc6c[n+](C)ccc6c(c54)c2c13 [DiMe-3, 9,14-dimethyl-9,14-diaza-benzo[1,2,3-kl:6,5,4-k′l′]dixanthene]",cell permeability,HeLa cells [8],cell permeable
same,staining specificity / subcellular localization,HeLa cells [2],staining lysosomes; also recorded: specific for punctuate organelles; also recorded: lysosomal subcellular specificity
same,toxicity to HeLa cells,HeLa cells [6],non-toxic
"C[n+]1ccc2c(c1)Oc1ccccc1/C2=C1/c2ccccc2Oc2c[n+](C)ccc21 [DiMe-E-1, (E)-3,3′-dimethyl-[5,5′-bichromeno[2,3-c]pyridinylidene]-3,3′-diium]",cell permeability,HeLa cells [2],cell permeable
same,staining specificity / subcellular localization,HeLa cells [2],specific for punctuate organelles; also recorded: lysosomal subcellular specificity
same,water solubility,"Solubility (DMSO, water)",water-solubility
same,toxicity to HeLa cells,HeLa cells [4],non-toxic
same,photostability compared with commercial dyes,HeLa cells [5],superior
"C[n+]1ccc2c(c1)Oc1ccccc1/C2=C1\c2ccccc2Oc2c[n+](C)ccc21 [DiMe-Z-1, (Z)-N, N′-dimethyl-3,3′-diazaxanthylidene]",cell permeability,HeLa cells [2],cell permeable
same,staining specificity / subcellular localization,HeLa cells [2],specific for punctuate organelles; also recorded: lysosomal subcellular specificity
same,water solubility,"Solubility (DMSO, water)",water-solubility
same,toxicity to HeLa cells,HeLa cells [4],non-toxic
same,photostability compared with commercial dyes,HeLa cells [5],superior
C[n+]1ccc2c(c1)Oc1ccccc1/C2=C1/c2ccccc2Oc2c[n+](C)ccc21 [E/Z-6],staining specificity / subcellular localization,HeLa cells [2],stains lysosomes
"C[n+]1ccc2c(c1)oc1cccc3c4cccc5oc6cnccc6c(c54)c2c13 [Me-3, 9-Me-9,14-diaza-benzo[1,2,3-kl:6,5,4-k′l′]dixanthene]",Pearson correlation with lysotracker red,lysosomes of HeLa cells,0.25
same,loss of intensity over 100 scans,HeLa cells [5],~5%
"C[n+]1ccc2c(c1)Oc1ccccc1/C2=C1/c2ccccc2Oc2cnccc21 [Me-E-1, (E)-2-methyl-[5,5′-bichromeno[2,3-c]pyridinylidene]-2-ium]",staining specificity / subcellular localization,HeLa cells [2],lysosome-specific stain
same,staining specificity / subcellular localization,HeLa cells [2]; listed as Me-1,lysosome-specific stain
same,staining specificity / subcellular localization,"HeLa cells [2]; listed as monomethylated 3,3′-DAXAZ",good lysosomal stain
same,Pearson correlation with lysotracker red,lysosomes of HeLa cells,0.75
same,loss of intensity over 100 scans,HeLa cells [5],~30%
"ClCc1ccc(C2=c3cc4c5c(c3Oc3c2cc2c6c3CCCN6CCC2)CCC[N+]=5CCC4)cc1.[Cl-] [Mitotracker, reference compound]",loss of intensity over 100 scans,HeLa cells [5],34%
O=c1cc(C(F)(F)F)c2cc3c4c(c2o1)CCCN4CCC3 [coumarine 153],quantum yield Φ of standard,[9],0.38
"CN(C)CCNC(=O)CCc1ccc2n1[B-](F)(F)[N+]1=C(c3ccc[nH]3)C=CC1=C2 [lysotracker, reference compound]",loss of intensity over 100 scans,HeLa cells [5],80%
